From ChEMBL document CHEMBL1156829 (Proc Natl Acad Sci U S A, 2008)

Legend:
Plasmodium falciparum [1] = experiment: NOVARTIS: Inhibition of Plasmodium falciparum 3D7 (drug-susceptible) proliferation in erythrocyte-based infection assay; type: functional, organism-based; details: Plasmodium falciparum, 3D7
Plasmodium falciparum [2] = experiment: NOVARTIS: Inhibition of Plasmodium falciparum W2 (drug-resistant) proliferation in erythrocyte-based infection assay; type: functional, organism-based; details: Plasmodium falciparum, W2; read-out: EC50
[3] = NOVARTIS: Cytotoxicity against human hepatocellular carcinoma cell line (Huh7); type: toxicity, cell-based, Huh-7; details: Huh7 cells (hepatocellular carcinoma cell line)

Structure (SMILES)	EC50 (Plasmodium falciparum [1])	EC50 (Plasmodium falciparum [2])	CC50 [3]
Clc1ccc(-c2c[n+](Cc3ccccc3Cl)c3n2CCC3)cc1	784 nM	384 nM	> 87 µM
CC(C)C(=O)N1CCOc2c(cc(-c3csc4ccccc34)cc2OCCc2ccccn2)C1	183 nM	125 nM	50.6 µM
CCOc1ccc(N2C(=O)NC(=O)/C(=C\c3cn(C(C)=O)c4ccccc34)C2=O)cc1	> 1250 nM	1860 nM	> 10 µM
O=C(NCc1ccccc1)c1cnc(NCCCN2CCCC2)nc1NCCc1ccccc1	648 nM	> 1250 nM	> 10 µM
N#Cc1cc(-c2cccc(C(F)(F)F)c2)cn(Cc2c(Cl)cccc2Cl)c1=O	> 7430 nM	5080 nM	> 100 µM
COc1cccc(NC(=O)c2cccc3c(=O)c4c([nH]c23)CCCC4)c1	957 nM	168 nM	> 100 µM
COc1cc(NC(C)CCCN(Cc2ccccc2OC)C(=O)Nc2ccccc2OC)c2ncccc2c1 (configuration not stated)	847 nM	614 nM	> 10 µM
NC(=O)c1ccc2[nH]c3c(c2c1)CCCC3	> 12500 nM	> 7160 nM	> 100 µM
COc1ccc(N2C(=O)c3cccnc3C2=O)cc1	1980 nM	665 nM	> 10 µM
C=C[C@H]1CN2CC[C@H]1C[C@@H]2[C@@H](OC(=O)Cc1ccccc1)c1ccnc2ccccc12	49.4 nM	51.7 nM	> 10 µM
COc1ccc(C[C@H](N)C(=O)N[C@H]2[C@@H](O)[C@H](n3cnc4c(N(C)C)ncnc43)O[C@@H]2CO)cc1 [PUROMYCIN]	611 nM	328 nM	6.63 µM
CCCCCC(=O)N1c2ccccc2N=C2CC(c3ccc(OC)c(OC)c3)CC(O)=C2C1c1ccc(C(F)(F)F)cc1 (configuration not stated)	107 nM	47 nM	> 100 µM
COc1ccc(S(=O)(=O)N2CCN(C(=S)NC3CCCCC3)CC2)cc1	8540 nM	1000 nM	> 100 µM
Clc1ccc(-c2c[n+](Cc3ccc(Cl)c(Cl)c3)c3n2CCC3)cc1	446 nM	623 nM	> 93.6 µM
Cc1nc(N2CCN(c3ccccn3)CC2)c2c(C)c(C(=O)Nc3c(F)cccc3F)sc2n1	3140 nM	694 nM	> 100 µM
COc1cc2nc(NCc3cccnc3)n3nc(-c4ccccc4)nc3c2cc1OC	182 nM	148 nM	> 100 µM
Cc1ccc(NC(C)c2nc3ccccc3c(=O)n2CCOC2CCCCO2)cc1C (configuration not stated)	799 nM	1040 nM	> 2.7 µM
c1cc(-c2nc3ccccc3[nH]2)nc(-c2nc3ccccc3[nH]2)c1	686 nM	916 nM	47.5 µM
Nc1nc(Cl)nc2ccccc12	516 nM	737 nM	> 10 µM
O=C(NN=Cc1ccc(Br)cc1)c1ccco1	11400 nM	> 12500 nM	> 100 µM
COc1ccc(-c2ncc([C@@H]3C[C@H]4CN(c5ccccc5)C(=O)[C@]45CCCN35)cn2)cc1	2260 nM	995 nM	29.8 µM
Cc1ccn2c(NC(C)(C)CC(C)(C)C)c(-c3ccccc3OC(=O)CC(C)C)nc2c1	772 nM	< 11.5 nM	> 10 µM
CC(C)(C)CC(C)(C)Nc1c(-c2ccccc2OC(=O)c2cccc(C(F)(F)F)c2)nc2ccccn12	957 nM	134 nM	> 10 µM
COC(=O)[C@@H]1C[C@@H](NC(=O)c2ccccc2F)CN1CC(c1ccccc1)c1ccccc1	1060 nM	> 1180 nM	> 10 µM
COc1ccc(-c2cc(C(F)(F)F)n3ncc(C(=O)Nc4cc(C)ccc4O)c3n2)cc1OC	3350 nM	2130 nM	> 100 µM

Structure (SMILES)	EC50 (Plasmodium falciparum [1])	EC50 (Plasmodium falciparum [2])	CC50 [3]
O=C1c2ccccc2C2=Nc3ccccc3SC(c3ccccc3F)C12 (configuration not stated)	209 nM	278 nM	22.9 µM
Cc1cc(C)n(-c2ncc(-c3ccc([N+](=O)[O-])cc3)cn2)n1	> 12500 nM	3960 nM	> 100 µM
O=C(Nc1ccc(-c2cc(-c3ccccc3)nc(-c3ccc(NC(=O)c4cccc([N+](=O)[O-])c4)cc3)n2)cc1)c1cccc([N+](=O)[O-])c1	1340 nM	1240 nM	> 10 µM
CC(C)NCC(O)Cn1c2ccc(Cl)cc2c2cc(Cl)ccc21 (configuration not stated)	183 nM	38.9 nM	4.87 µM
N#Cc1cccc(/C=C/C(=O)O)c1	1650 nM	752 nM	> 10 µM
CSc1oc(C(C)(C)C)nc1[P+](c1ccccc1)(c1ccccc1)c1ccccc1	296 nM	438 nM	6.82 µM
COc1cccc(NC(=O)Cn2c(C)c(C(C)=O)c3ccccc32)c1	1760 nM	713 nM	> 100 µM
COc1ccc(SC2CCN(C3CCOCC3)CC2)cc1	> 1470 nM	358 nM	0.24 µM
CC(C)CN1C(=O)N(CCCc2cccnc2)C(=O)C12CCN(C1CCOCC1)CC2	> 12500 nM	1420 nM	> 100 µM
CCC(C)C(=O)N1CCC(C(=O)Nc2ccc(-c3nc4ccccc4o3)cc2)CC1 (configuration not stated)	1860 nM	1580 nM	> 100 µM
CC(=O)N1CCN(C(=O)CCCSc2nnc(-c3ccc(C)cc3)n2-c2cccc(C)c2)CC1C (configuration not stated)	> 914 nM	> 634 nM	> 10 µM
Cc1cccc(-n2c(-c3ccccc3)nc3ccc(-c4ccc5nc(-c6ccccc6)n(-c6cccc(C)c6)c(=O)c5c4)cc3c2=O)c1	> 1200 nM	> 939 nM	> 10 µM
CCNC(=O)N(CCCCOc1ccc(C(C)(C)CC)cc1C(C)(C)CC)Cc1ccc(OC)c(OCc2ccccc2)c1	595 nM	61 nM	> 10 µM
O=C(NNC(=O)c1cccc(F)c1)C(=O)N1CCOCC1	> 1250 nM	> 1110 nM	> 10 µM
CCOC(=O)c1[nH]c2ccccc2c1N=NN(C)C	128 nM	376 nM	36.1 µM
Nc1nc(NCC2CCC(CNS(=O)(=O)c3cccc4ccccc34)CC2)nc2ccccc12 (configuration not stated)	684 nM	571 nM	> 10 µM
COc1ccccc1C1SCCN1C(=O)Nc1ccc(Cl)c(Cl)c1 (configuration not stated)	> 1020 nM	2260 nM	> 10 µM
COc1ccc(CCNc2nc(NCCCN3CCCCC3C)ncc2C(=O)NCc2ccccc2)cc1OC (configuration not stated)	323 nM	< 16.1 nM	> 10 µM
COc1ccc(Nc2nc(NCc3ccccc3)c3ccccc3n2)cc1	212 nM	106 nM	8.67 µM
CCN1CCN(C(=O)CS(=O)(=O)Cc2nc(-c3cccc(OC)c3)oc2C)CC1	> 1250 nM	> 712 nM	> 10 µM
CCCCCn1c(C)[n+](CCCC)c2cc(Cl)c(Cl)cc21	1240 nM	1160 nM	> 100 µM
CCC(c1nc2ccccc2c(=O)n1-c1ccc(Cl)cc1C)N(CCc1ccccc1)C(=O)c1cccc(OC)c1 (configuration not stated)	519 nM	232 nM	> 10 µM
COc1cc(/C=C(\C#N)c2nc3ccccc3[nH]2)ccc1OCc1ccccc1F	> 1190 nM	919 nM	> 10 µM
COc1cc(NC(C)CCCN(Cc2ccc(Cl)cc2)C(=O)Nc2cccc(C(F)(F)F)c2)c2ncccc2c1 (configuration not stated)	798 nM	332 nM	> 4.44 µM
